Experimental data: PMC8619046, “ABCB1 and ABCG2 Control Brain Accumulation and Intestinal Disposition of the Novel ROS1/TRK/ALK Inhibitor Repotrectinib, While OATP1A/1B, ABCG2, and CYP3A Limit Its Oral Availability” (Pharmaceutics, 2021)
Several values for one entry are separate records, joined by “and”; a condition that tells them apart may be missing. Identical values can stand only once. Like-named read-outs stand apart in the source and are kept apart here.

Test: 4-h oral plasma pharmacokinetics and tissue distribution, male wild-type and ABC transporter knockout mice
Format: in vivo
Conditions: 10 mg/kg oral; for AUC(0-t) / Kp at 4 h / concentration at 4 h / Cmax / Tmax: FVB, mouse; for AUC(0-t) / Cmax / Tmax: plasma; for AUC(0-t): read-out: AUC0–4h; for Fold change Cliver / Fold change SIC (% of dose) / Fold change ratio (SIC (%)-to-plasma) / Fold change ratio (liver-to-plasma) / Fold change ratio (testis-to-plasma) / Fold increase Cbrain / Fold increase Ctestis / Fold change ratio (brain-to-plasma) / Fold increase AUC0–4h: vs wild-type; for Tmax: median (range)
Source text: Mice with similar average ages (and body weights) were randomly allocated in experimental groups as far as possible. Mice were maintained in a temperature-controlled and specific pathogen-free environment with a 12-h light and 12-h dark cycle and they received a standard diet (Transbreed, SDS Diets, Technilab-BMI, Someren, The Netherlands) and acidified water ad libitum. […] Given the objective main readout (repotrectinib plasma and tissue concentrations as measured by LC-MS/MS), no blinding method was applied.
Repotrectinib was dissolved in dimethyl sulfoxide (DMSO) at a concentration of 50 mg/mL. This stock solution was first diluted 3-fold with ethanol/polysorbate 80 (1/1; v/v), followed by further dilution with a 10 mM hydrochloric acid solution, yielding a dosing solution of 1 mg/mL, freshly prepared on the day of experiment. Final concentrations of the solvents in the administration solution were: 2%, 2%, 2%, and 94% (all v/v) for DMSO, ethanol, polysorbate 80, and 10 mM hydrochloric acid solution, respectively.
To minimize variation in absorption upon oral administration, mice were fasted for 2–3 h before repotrectinib (10 mg/kg body weight) was administered by gavage into the stomach at 10 µL/g body weight, with a blunt-ended needle. Tail vein serial blood samples were collected at 0.125, 0.25, 0.5, 1, 2 and 4 h using heparinized capillary tubes (Sarstedt, Nümbrecht, Germany) for the 8-h experiments. For the 4- and 2-h experiments, blood samplings were performed from the tail vein with the same schedule, but terminated at 2 and 1 h, respectively. Eight, four, or two hours after oral administration, mice were deeply anesthetized with 2–3% isoflurane, followed by cardiac puncture to collect blood in Eppendorf tubes containing heparin as an anticoagulant. Brain, liver, spleen, kidney, lung, small intestine, and testis were rapidly collected after sacrificing the mice by cervical dislocation. The small intestinal contents (SIC) were separated from small intestinal tissue (SI), which was flushed and rinsed with cold saline to remove any residual feces. Brain, liver, spleen, kidney, lung, SI, SIC, and testis were homogenized with 1, 3, 1, 2, 1, 3, 2, and 1 mL of 2% BSA (w/v), respectively. Plasma fraction was isolated from blood by centrifugation at 9000× g for 6 min at 4 °C. All samples were stored at −30 °C until analysis.
A sensitive and specific liquid chromatography-tandem mass spectrometry method using protein precipitation pre-treatment was adopted to quantify the concentration of repotrectinib in DMEM medium, plasma samples and tissue homogenates.
A non-compartmental model using the PKSolver add-in program for Microsoft Excel was adopted to calculate the pharmacokinetic parameters of repotrectinib. Oral availability was assessed by the plasma area under the curve (AUC), calculated using repotrectinib plasma concentration-time curves with the linear trapezoidal rule without extrapolating the infinity. Statistical testing was performed in Graphpad Prism7 (Graphpad Software, La Jolla, CA, USA). All data are presented as geometric means ± SD. Heteroscedastic data were log-transformed before applying statistical analysis. When differences between two groups were compared, the two-sided unpaired Student’s t test was used. One-way analysis of variance (ANOVA) was applied when multiple groups were compared, and the Bonferroni post hoc correction was used to accommodate multiple testing. Differences were considered statistically significant when P < 0.05.

[1] = male Abcb1a/1b;Abcg2−/− mice, 4 h
[2] = male Abcb1a/1b;Abcg2−/− mice, 4 h, 10 mg/kg
[3] = male Abcb1a/1b−/− mice, 4 h, 10 mg/kg
[4] = male, po, 10 mg/kg, male Abcb1a/1b;Abcg2−/− mice, 4 h
[5] = male, po, 10 mg/kg, male Abcb1a/1b−/− mice, 4 h
[6] = male, po, 10 mg/kg, male Abcg2−/− mice, 4 h
[7] = male, po, 10 mg/kg, male wild-type mice, 4 h

C[C@H]1CNC(=O)c2cnn3ccc(nc23)N[C@H](C)c2cc(F)ccc2O1 [repotrectinib]
Small intestinal content recovery, fold decrease (Abcb1a/1b;Abcg2−/− mice vs wild-type): 13.6 fold
Small intestinal content recovery, fold decrease (Abcb1a/1b−/− mice vs wild-type): 4.9 fold
reduction of liver-to-plasma ratio (Abcg2−/− and Abcb1a/1b;Abcg2−/− mice compared to wild-type mice, 4 h): 30–35%
AUC(0-t) (male Abcg2−/− mice, 4 h): 11900 ± 1420 ng·h/mL
Fold change Cliver [1]: 1.37
Fold change SIC (% of dose) [1]: 0.07
Fold change ratio (SIC (%)-to-plasma) [1]: 0.03
Fold change ratio (liver-to-plasma) [1]: 0.69
Fold change ratio (testis-to-plasma) [1]: 5.6
Fold increase Cbrain [1]: 29.1
Fold increase Ctestis [1]: 10.8
Fold change ratio (brain-to-plasma) [2]: 14 and 14.2
Fold increase AUC0–4h [2]: 2.0
Fold change Cliver (male Abcb1a/1b−/− mice, 4 h): 0.84
Fold change SIC (% of dose) (male Abcb1a/1b−/− mice, 4 h): 0.20
Fold change ratio (SIC (%)-to-plasma) (male Abcb1a/1b−/− mice, 4 h): 0.21
Fold change ratio (liver-to-plasma) (male Abcb1a/1b−/− mice, 4 h): 0.85
Fold change ratio (testis-to-plasma) (male Abcb1a/1b−/− mice, 4 h): 2.42
Fold increase AUC0–4h (male Abcb1a/1b−/− mice, 4 h): 1.32
Fold increase Ctestis (male Abcb1a/1b−/− mice, 4 h): 2.45
Fold change ratio (brain-to-plasma) [3]: 4.1 and 4.13
Fold increase Cbrain [3]: 4.1 and 4.14
Fold change Cliver (male Abcg2−/− mice, 4 h): 1.01
Fold change SIC (% of dose) (male Abcg2−/− mice, 4 h): 0.87
Fold change ratio (SIC (%)-to-plasma) (male Abcg2−/− mice, 4 h): 0.54
Fold change ratio (brain-to-plasma) (male Abcg2−/− mice, 4 h): 0.93
Fold change ratio (liver-to-plasma) (male Abcg2−/− mice, 4 h): 0.65
Fold change ratio (testis-to-plasma) (male Abcg2−/− mice, 4 h): 0.71
Fold increase Cbrain (male Abcg2−/− mice, 4 h): 1.41
Fold increase Ctestis (male Abcg2−/− mice, 4 h): 1.07
Fold increase AUC0–4h (male Abcg2−/− mice, 4 h, 10 mg/kg): 1.7
Fold change Cliver (male wild-type mice, 4 h): 1.00
Fold change SIC (% of dose) (male wild-type mice, 4 h): 1.00
Fold change ratio (SIC (%)-to-plasma) (male wild-type mice, 4 h): 1.00
Fold change ratio (brain-to-plasma) (male wild-type mice, 4 h): 1.00
Fold change ratio (liver-to-plasma) (male wild-type mice, 4 h): 1.00
Fold change ratio (testis-to-plasma) (male wild-type mice, 4 h): 1.00
Fold increase AUC0–4h (male wild-type mice, 4 h): 1.00
Fold increase Cbrain (male wild-type mice, 4 h): 1.00
Fold increase Ctestis (male wild-type mice, 4 h): 1.00
Kp at 4 h (male, brain, po, 10 mg/kg, male Abcb1a/1b;Abcg2−/− mice, 4 h, read-out: Brain-to-plasma ratio): 2.13 ± 0.21
concentration at 4 h (male, brain, po, 10 mg/kg, male Abcb1a/1b;Abcg2−/− mice, 4 h, read-out: Cbrain): 2760 ± 928 ng/g
Kp at 4 h (male, brain, po, 10 mg/kg, male Abcb1a/1b−/− mice, 4 h, read-out: Brain-to-plasma ratio): 0.62 ± 0.17
concentration at 4 h (male, brain, po, 10 mg/kg, male Abcb1a/1b−/− mice, 4 h, read-out: Cbrain): 394 ± 102 ng/g
Kp at 4 h (male, brain, po, 10 mg/kg, male Abcg2−/− mice, 4 h, read-out: Brain-to-plasma ratio): 0.14 ± 0.03
concentration at 4 h (male, brain, po, 10 mg/kg, male Abcg2−/− mice, 4 h, read-out: Cbrain): 134 ± 18 ng/g
Kp at 4 h (male, brain, po, 10 mg/kg, male wild-type mice, 4 h, read-out: Brain-to-plasma ratio): 0.15 ± 0.03
concentration at 4 h (male, brain, po, 10 mg/kg, male wild-type mice, 4 h, read-out: Cbrain): 95.1 ± 23.5 ng/g
concentration at 4 h (male, liver, po, 10 mg/kg, male Abcb1a/1b;Abcg2−/− mice, 4 h, read-out: Cliver): 9090 ± 2750 ng/g
Kp at 4 h (male, liver, po, 10 mg/kg, male Abcb1a/1b;Abcg2−/− mice, 4 h, read-out: Liver-to-plasma ratio): 7.2 ± 1.2
concentration at 4 h (male, liver, po, 10 mg/kg, male Abcb1a/1b−/− mice, 4 h, read-out: Cliver): 5580 ± 2030 ng/g
Kp at 4 h (male, liver, po, 10 mg/kg, male Abcb1a/1b−/− mice, 4 h, read-out: Liver-to-plasma ratio): 8.9 ± 2.4
concentration at 4 h (male, liver, po, 10 mg/kg, male Abcg2−/− mice, 4 h, read-out: Cliver): 6690 ± 1210 ng/g
Kp at 4 h (male, liver, po, 10 mg/kg, male Abcg2−/− mice, 4 h, read-out: Liver-to-plasma ratio): 6.8 ± 0.6
concentration at 4 h (male, liver, po, 10 mg/kg, male wild-type mice, 4 h, read-out: Cliver): 6630 ± 1160 ng/g
Kp at 4 h (male, liver, po, 10 mg/kg, male wild-type mice, 4 h, read-out: Liver-to-plasma ratio): 10.5 ± 1.9
Cmax [4]: 5230 ± 1240 ng/mL
AUC(0-t) [4]: 14000 ± 3180 ng·h/mL
Cmax [5]: 3630 ± 620 ng/mL
AUC(0-t) [5]: 9200 ± 1640 ng·h/mL
Cmax [6]: 5080 ± 490 ng/mL
Cmax [7]: 3080 ± 1440 ng/mL
AUC(0-t) [7]: 6990 ± 2460 ng·h/mL
Tmax [4]: 60 min
Tmax [5]: 30 min
Tmax [6]: 15 min
Tmax [7]: 30 min
Kp at 4 h (male, small intestinal content, po, 10 mg/kg, male Abcb1a/1b;Abcg2−/− mice, 4 h, read-out: SIC (%)-to-plasma ratio): 0.0003 ± 9e-05
Kp at 4 h (male, small intestinal content, po, 10 mg/kg, male Abcb1a/1b−/− mice, 4 h, read-out: SIC (%)-to-plasma ratio): 0.00186 ± 0.00084
Kp at 4 h (male, small intestinal content, po, 10 mg/kg, male Abcg2−/− mice, 4 h, read-out: SIC (%)-to-plasma ratio): 0.00475 ± 0.00154
Kp at 4 h (male, small intestinal content, po, 10 mg/kg, male wild-type mice, 4 h, read-out: SIC (%)-to-plasma ratio): 0.00879 ± 0.00241
concentration at 4 h (male, testis, po, 10 mg/kg, male Abcb1a/1b;Abcg2−/− mice, 4 h, read-out: Ctestis): 1670 ± 386 ng/g
Kp at 4 h (male, testis, po, 10 mg/kg, male Abcb1a/1b;Abcg2−/− mice, 4 h, read-out: Testis-to-plasma ratio): 1.35 ± 0.31
concentration at 4 h (male, testis, po, 10 mg/kg, male Abcb1a/1b−/− mice, 4 h, read-out: Ctestis): 380 ± 122 ng/g
Kp at 4 h (male, testis, po, 10 mg/kg, male Abcb1a/1b−/− mice, 4 h, read-out: Testis-to-plasma ratio): 0.58 ± 0.14
concentration at 4 h (male, testis, po, 10 mg/kg, male Abcg2−/− mice, 4 h, read-out: Ctestis): 166 ± 27 ng/g
Kp at 4 h (male, testis, po, 10 mg/kg, male Abcg2−/− mice, 4 h, read-out: Testis-to-plasma ratio): 0.17 ± 0.02
concentration at 4 h (male, testis, po, 10 mg/kg, male wild-type mice, 4 h, read-out: Ctestis): 155 ± 55 ng/g
Kp at 4 h (male, testis, po, 10 mg/kg, male wild-type mice, 4 h, read-out: Testis-to-plasma ratio): 0.24 ± 0.07
SIC (% of dose) (small intestinal content, male Abcb1a/1b;Abcg2−/− mice, 4 h, 10 mg/kg): 0.4 % of dose and 0.41 ± 0.23 ^(##) % of dose
SIC (% of dose) (small intestinal content, male Abcb1a/1b−/− mice, 4 h, 10 mg/kg): 1.1 % of dose and 1.13 ± 0.40 % of dose
SIC (% of dose) (small intestinal content, male Abcg2−/− mice, 4 h, 10 mg/kg): 4.8 % of dose and 4.84 ± 2.21 % of dose
